Measurements from patent US9108933B2, “Method for treating proliferative disorders associated with mutations in c-Met” (Synta Pharmaceuticals Corp., priority 2007, dated 2015).
“Also recorded” adds a separate entry of the source.

Columns and labels:
[1] = test system: mutant c-Met (T1010I) on ACHN human renal cell carcinoma cells; assay: Flow cytometric analysis of c-Met on the surface of ACHN cells; type: cell-based; details: 18 hours, read-out: IC50 for degradation of mutant c-Met
Protocol: (§1) Flow cytometric analysis was used to monitor the degradation of c-Met over-expressed on the surface of the ACHN human renal cell carcinoma cell line which contains the juxtamembrane domain mutation (C3223T: T1010I) and is constitutively active, and the MKN45 which is a c-Met amplified human gastric carcinoma cell line. ACHN and MKN45 cells (5×10^5 cells) were treated with Compound 226, 17-AAG or 17-DMAG for 18 hours. After treatment the cells were stained with FITC conjugated c-MET antibody. The expression of the c-Met cell surface proteins was measured by flow cytometry analysis (see FIG. 4 for ACHN cells and FIG. 5 for MKN45 cells). The IC50 value was determined by XLfit software.

[2] = test system: c-Met on MKN45 c-Met amplified human gastric carcinoma cells; assay: Flow cytometric analysis of c-Met on the surface of MKN45 cells; type: cell-based; details: MKN-45 cell line, 18 hours; read-out: IC50 for degradation of c-Met
Protocol: as §1

[3] = test system: MNK45 cell line, c-Met amplified human gastric carcinoma; assay: Cell survival of MKN45 cells (Cell Counting Kit-8); type: cell-based; details: 72 hours
Protocol: MNK45 cell line, (DSMZ #ACC 409), which is a c-Met amplified human gastric carcinoma cell line, was obtained from the Deutsche Sammlung von Mikroorganismen and Zellkulturen GmbH (DSMZ; Braunschweig, Germany). […] MNK45 cells (20,000 cells/well) were cultured in 96-well plates and maintained at 37° C. for several hours. The cells were incubated at 37° C. for 72 hours with various concentrations of compound 226 of the invention, 17AAG, or DMAG. 17AAG and 17DMAG are Hsp90 inhibitors that are currently in clinical trials and are used here as positive controls for Hsp90 inhibition. Cell survival was measured with Cell Counting Kit-8 (Dojindo Laboratories, Cat # CK04).

[4] = test system: human tumor cell line MDA-MB-435S; assay: MDA-MB-435S nude mouse xenograft model; type: in vivo; details: 300 mg/kg body weight, IP, 5 days per week for 3 weeks
Protocol: FBS was obtained from Sigma-Aldrich Corp. (St. Louis, Mo., USA), and all other reagents were obtained from Invitrogen Corp. (Carlsbad, Calif., USA). Approximately 4-5×10(6) cells that had been cryopreserved in liquid nitrogen were rapidly thawed at 37° C. and transferred to a 175 cm^2 tissue culture flask containing 50 ml of growth media and then incubated at 37° C. in a 5% CO2 incubator. The growth media was replaced every 2-3 days until the flask became 90% confluent, typically in 5-7 days. To passage and expand the cell line, a 90% confluent flask was washed with 10 ml of room temperature phosphate buffered saline (PBS) and the cells were disassociated by adding 5 ml 1× Trypsin-EDTA (Invitrogen) and incubating at 37° C. until the cells detached from the surface of the flask. […] The supernatant was aspirated and the cell pellet was resuspended in 10 ml of growth media and the cell number determined using a hemocytometer. […]
Six to eight week old, female Crl:CD-1-nuBR (nude) mice were obtained from Charles River Laboratories (Wilmington, Mass., USA). […] Tumor volumes (V) were calculated by caliper measurement of the width (W), length (L) and thickness (T) of tumors using the following formula: V=[…]×(L×W×T) Animals were randomized into treatment groups so that the average tumor volumes of each group were similar at the start of dosing. […]

[5] = test system: Hsp90 protein; assay: Malachite Green assay of ATPase activity of Hsp90 protein; type: biochemical; details: 37° C., 4 hours
Protocol: Hsp90 protein was obtained from Stressgen (Cat#SPP-770). Assay buffer: 100 mM Tris-HCl, Ph7.4, 20 mM KCl, 6 mM MgCl2. […] Malachite green reagent was added to the reaction. […] The plate was read by an ELISA reader with an absorbance at 620 nm.

[6] = test system: Her2; assay: Degradation of Her2 in BT-474 cells, Western blot (Method 1); type: cell-based, human; details: overnight
Protocol: Human high-Her2 breast carcinoma BT474 (HTB-20), SK-BR-3 (HTB-30) and MCF-7 breast carcinoma (HTB-22) from American Type Culture Collection, VA, USA were grown in Dulbecco's modified Eagle's medium with 4 mM L-glutamine and antibiotics (100 IU/ml penicillin and 100 ug/ml streptomycine; GibcoBRL). To obtain exponential cell growth, cells were trypsinized, counted and seeded at a cell density of 0.5×10^6 cells/ml regularly, every 3 days. All experiments were performed on day 1 after cell passage.
After treatment, each cytoplasmic sample was prepared from 1×10^6 cells by incubation of cell lysis buffer (#9803, cell Signaling Technology) on ice for 10 minutes. The resulting supernatant used as the cytosol fractions were dissolved with sample buffer for SDS-PAGE and run on a SDS-PAGE gel, blotted onto a nitrocellulose membrane by using semi-dry transfer. Non-specific binding to nitrocellulose was blocked with 5% skim milk in TBS with 0.5% Tween at room temperature for 1 hour, then probed with anti-Her2/ErB2 mAb (rabbit IgG, #2242, Cell Signaling) and anti-Tubulin (T9026, Sigma) as housekeeping control protein. HRP-conjugated goat antirabbit IgG (H+L) and HRP-conjugated horse anti-mouse IgG (H+L) were used as secondary Ab (#7074, #7076, Cell Signaling) and LumiGLO reagent, 20× Peroxide (#7003, Cell Signaling) was used for visualization.

[7] = test system: human c-MET amplified gastric carcinoma tumor cell line MKN-45; assay: MKN-45 nude mouse xenograft model; type: in vivo; details: 50 mg/kg body weight, i.v., 3 times per week, 9 doses
Protocol: The human gastric carcinoma cell line, MKN-45 (DSMZ #ACC 409), was obtained from the Deutsche Sammlung von Mikroorganismen and Zellkulturen GmbH (DSMZ; Braunschweig, Germany). […] FBS was obtained from ATCC and all other reagents were obtained from Invitrogen Corp. (Carlsbad, Calif., USA). Cells that had been cryopreserved in liquid nitrogen were rapidly thawed at 37° C. and transferred to a tissue culture flask containing growth media and then incubated at 37° C. in a 5% CO2 incubator. To expand the cell line, growth media was replaced every 2-3 days until the flask became 90% confluent, typically in 5-10 days. Cultures were passaged by washing with 10 mL of room temperature phosphate buffered saline (PBS) and then disassociating cells by adding 5 mL 1× trypsin-EDTA and incubating at 37° C. until the cells detached from the surface of the flask. To inactivate the trypsin, 5 mL of growth media was added and then the contents of the flask were centrifuged to pellet the cells. The supernatant was aspirated and the cell pellet was resuspended in 10 mL of growth media and the cell number determined using a hemocytometer. Approximately 3-6×10(6) cells per flask were seeded into 175 cm^2 flasks containing 50 mL of growth media and incubated at 37° C. in a 5% CO2 incubator. […]
Tumors were then permitted to develop in vivo until the majority reached 100-200 mm^3 in tumor volume, which required ˜2 weeks following implantation. […] Tumor volumes (V) were calculated by caliper measurement of the width (W), length (L) and thickness (T) of tumors using the following formula: V=0.5236×(L×W×T). Animals were randomized into treatment groups so that the average tumor volumes of each group were similar at the start of dosing. % T/C values, as a measure of efficacy, were determined as follows: • (i) If ΔT>0: % T/C=(ΔT/ΔC)×100 • (ii) If ΔT<0: % T/C=(ΔT/T0)×100 • (iii) ΔT=Change in average tumor volume between start of dosing and the end of study. • (iv) ΔC=Change in average tumor volume between start of dosing and the end of study. • (v) T0=Average tumor volume at start of dosing. […]

For C=CCNC1=C2C[C@@H](C)C[C@H](OC)[C@H](O)[C@@H](C)/C=C(\C)[C@H](OC(N)=O)[C@@H](OC)/C=C\C=C(/C)C(=O)NC(=CC1=O)C2=O [Compound 17-AAG], the IC50 [1] was 244 nM and the IC50 [2] was 202 nM.
For CO[C@H]1/C=C\C=C(/C)C(=O)NC2=CC(=O)C(NCCN(C)C)=C(C[C@@H](C)C[C@H](OC)[C@H](O)[C@@H](C)/C=C(\C)[C@@H]1OC(N)=O)C2=O [Compound 17-DMAG], the IC50 [1] was 95 nM, the IC50 [2] was 70 nM and the IC50 [3] was 14 nM.
In the case of C=CCNC1=C2C[C@@H](C)C[C@H](OC)[C@H](O)[C@@H](C)/C=C(\C)[C@H](OC(N)=O)[C@@H](OC)/C=C\C=C(/C)C(=O)NC(=CC1=O)C2=O [Compound 17AAG], the IC50 [3] is reported as 45 nM.
CCc1cc(-c2nnc(S)n2-c2cccc3ccccc23)c(O)cc1O [Compound 49, 3-(2,4-Dihydroxy-5-ethyl-phenyl)-4-(naphthalen-1-yl)-5-mercapto-triazole] was tested, and the “toxicity (effect on body weights)” value [4] was “not associated with significant toxicity”.
With Oc1ccc(-c2nnc(S)n2-c2cccc3ccccc23)c(O)c1 [Compound 108, 3-(2,4-Dihydroxy-3-phenyl)-4-(naphthalen-1-yl)-5-mercapto-triazole] the “inhibition of ATPase activity of Hsp90” value ([5]; 4 μM) was “significant inhibition”, the “inhibition of ATPase activity of Hsp90” value ([5]; 40 μM) was “even greater inhibition of ATPase activity of Hsp90 than geldanamycin” and the “degradation of Her2” value ([6]; 0.5 μM) was “partially degradated”. The “degradation of Her2” value ([6]; 2 μM) was “partially degradated” and the “degradation of Her2” value ([6]; 5 μM) was “almost completely degraded”.
With CC(C)c1cc(-c2nnc(O)n2-c2ccc3c(ccn3C)c2)c(O)cc1O [Compound 226, 3-(2,4-dihydroxy-5-isopropyl-phenyl)-4-(1-methyl-indol-5-yl)-5-hydroxy-[1,2,4] triazole] the IC50 [1] was 18 nM, the toxicity [7] was “not associated with excessive toxicity; also recorded: Overt toxicity was not observed” and the “% T/C value” ([7]; day 36) was 8%. For the same compound, the “average bodyweight loss relative to the start of the study” value ([7]; day 36) was −3.5%, the IC50 [2] was 26 nM and the IC50 ([3]; Homo sapiens) was 8 nM.
